Reference: US4579947A, “Substituted phenylalkylpiperazinylpropyl (ureas or thioureas) useful for treatment of immunological, inflammatory and allergic disorder” (Boehringer Ingelheim Pharmaceuticals, Inc., priority 1984, dated 1986)
Where a name gives a salt, the structure may show the parent alone.

Experiments:
Assay type in all cases: cell-based
[1] = system: isolated guinea pig ileum; assay: Antagonism of histamine-induced contraction of isolated guinea pig ileum; conditions: Cavia porcellus; Table C; histamine final concentration 0.2 μg/ml; read-out: Inhibition IC50 (histamine-induced contraction of isolated guinea pig ileum)
Protocol: The antagonism of the effects of histamine on the contraction of isolated guinea pig ileum by the compounds of formula I can be determined by the procedure of G. Possanza, A. Bauen, and P. Stewart, Int. Arch. Allergy Appl. Immunol., 49, 289 (1975). The degree of inhibition is determined as the difference between the contraction caused by histamine (final concentration 0.2 μg/ml) alone and that seen in the presence of both histamine and the test compound. The inhibitory activity of the test compound is expressed as that concentration of the compound which causes a 50% reduction of the contractile response (IC50).

[2] = system: human leukocytes (basophils); assay: Inhibition of human leukocyte (basophil) histamine release in vitro (rabbit anti-human IgE); conditions: Table A, 60 minutes at 37° C., Int. = interference with test procedure; for IC50: Leukocyte, 1 h, read-out: Inhibition IC50 (histamine release from human leukocytes (basophils))
Protocol: Separation of Leukocytes: A modification of the method of L. Lichtenstein and A. Osler, J.Exp.Med. 120, 507 (1964) was used. Heparinized human blood (80-100 ml) is mixed with 20 ml of saline (0.2%) containing 0.6 gm of dextrose and 1.2 gm dextran in propylene centrifuge tubes. The mixture is kept at ambient temperature for 60-90 minutes to allow the separation of erythrocytes from the platelet-leukocyte-rich supernate. The supernate is removed and centrifuged for 8 minutes at 110×g in cold. The leukocyte pellet is washed 2× with Tris buffer and finally suspended in 150-180 ml Tris-ACM buffer at 1-2×10^6 cells/ml. 2. Reaction Mixture: The reaction is carried out in 12×75 mm plastic tubes at a total volume of 1.25 ml. The reaction medium includes 0.05 ml rabbit anti-human IgE (the antigen), 0.2 ml of the test compound in water at concentrations ranging from 10-1000 μM, and 1.0 ml of the leukocyte suspension. The reaction mixture is incubated in a 37° C. shaking water bath for 60 minutes. Upon completion of the reaction, the tubes are centrifuged and the supernatants collected. The protein is removed from the supernatants by precipitation with 0.2 ml of 8% perchloric acid. 3. Histamine Assay: Histamine release is measured by the automated fluorometric method of W. Siraganian and W. Hook in Chapter 102 of the Manual of Clinical Immunology, 2nd Edition, Edited by R. Rose and H. Friedman, Published by the American Society for Microbiology, Washington, D.C. 1980. Percent inhibition is calculated as follows: [formula] The concentration which causes a 50 percent inhibition (IC50) of histamine release is interpolated from a plot of percent inhibition versus logarithm of drug concentration.

[3] = system: rat peritoneal mast cells; assay: Inhibition of rat peritoneal mast cell histamine release; conditions: Mast cell, 1 h; Table B; in vitro, sheep anti-rat IgE or ovalbumin, 60 minutes at 37° C.; Int. = interference with test procedure; read-out: Inhibition IC50 (histamine release from rat peritoneal mast cells)
Protocol: Harvest of Peritoneal Mast Cells: After the rats are sacrificed with ether, 20 ml of Minimum Essential Medium (MEM) containing 20 units/ml heparin is injected into the peritoneum. The abdomen is massaged for one minute and the lavage fluid collected. The peritoneal cells are centrifuged at 1800 rpm for 8 minutes in cold. After two washes with Tris A buffer, the cells are resuspended in Tris ACM buffer at 2-33 10^6 cells/ml. 2. Reaction Mixture: The reaction is carried out in 12×75 mm plastic tubes at a total volume of 1.25 ml. The reaction mixture includes 0.5 ml (10-1000 μg) sheep anti-rat IgE or ovalbumin, 0.2 ml of the test compound in water at concentrations ranging from 10-1000 μM, 0.5 ml phosphatidylserine solution (20-60 μg to each tube), and 0.5 ml of cell suspension. The reaction mixture is incubated in a 37° C. shaking water bath for 60 minutes. Upon completion of the reaction, the tubes are centrifuged and the supernatants collected. The protein is removed from the supernatants by precipitation with 0.2 ml of 8% perchloric acid. 3. Histamine Assay: Histamine release is measured by the automated fluorometric method of Siraganian, supra. The concentration which causes a 50% inhibition (IC50) of histamine release is computed as in Part A.

Work on `CCCCNC(=O)NCCCN1CCN(Cc2ccc(Cl)cc2)CC1` [Example 3, 1-{3-[4-(4-Chlorobenzyl)piperazin-1-yl]propyl}-3-n-butylurea dihydrochloride hemihydrate] yielded an IC50 [1] of 0.07 µM and an IC50 [2] of 50 µM.

`N#Cc1ccc(NC(=O)NCCCN2CCN(Cc3ccc(Cl)cc3)CC2)cc1` [Example 24, 1-{3-[4-(4-Chlorobenzyl)piperazin-1-yl]propyl}-3-(4-cyanophenyl)urea dihydrochloride monohydrate] showed an IC50 [3] of 150 µM, an IC50 [1] of 0.008 µM and an IC50 [2] of 81 µM.

With `CCCCCCNC(=O)NCCCN1CCN(Cc2ccc(Cl)c(C(F)(F)F)c2)CC1.Cl.Cl` [Example 26, 1-{3-[4-(3-Trifluoromethyl-4-chlorobenzyl)piperazin-1-yl]propyl}-3-n-hexylurea dihydrochloride] the IC50 [1] was 0.09 µM and the “Inhibition IC50 (histamine release from human leukocytes (basophils))” value [2] was “Int”.

`CCCCCCCCNC(=O)NCCCN1CCN(Cc2ccc(Cl)cc2)CC1` [Example 5, 1{3-[4-(4-Chlorobenzyl)piperazin-1-yl]propyl}-3-n-octylurea diihydrochloride] gave an IC50 [3] of 210 µM, an IC50 [1] of 0.75 µM and an IC50 [2] of 16 µM.

`CC(=O)c1ccc(NC(=O)NCCCN2CCN(Cc3ccc(Cl)cc3)CC2)cc1` [Example 29, 1-{3-[4-(4-Chlorobenzyl)piperazin-1-yl]propyl}-3-(4-acetylphenyl)urea dihydrochloride dihydrate] gave an IC50 [1] of 0.02 µM and an IC50 [2] of 115 µM.

Work on `S=C(NCCCN1CCN(Cc2ccc(Cl)cc2)CC1)Nc1ccccc1` [Example 20, 1-{3-[4-(4-Chlorobenzyl)piperazin-1-yl]propyl}-3-phenylthiourea] yielded an IC50 [1] of 0.1 µM and an IC50 [2] of 37 µM.

`O=C(NCCCN1CCN(Cc2ccc(F)cc2)CC1)NC1CCCCC1` [Example 6, 1-{3-[4-(4-Fluorobenzyl)piperazin-1-yl]propyl}-3-cyclohexylurea dihydrochloride monohydrate] gave an IC50 [1] of 0.11 µM and an IC50 [2] of 50 µM.

With `C=CCNC(=O)NCCCN1CCN(Cc2ccc(Cl)cc2)CC1` [Example 28, 1-{3-[4-(4-Chlorobenzyl)piperazin-1-yl]propyl}-3-allylurea dihydrochloride] the IC50 [1] was 0.17 µM and the IC50 [2] was 120 µM.

`O=C(NCCCN1CCN(Cc2ccc(Cl)cc2)CC1)Nc1ccc(Cl)cc1` [Example 10, 1-{3-[4-(4-Chlorobenzyl)piperazin-1-yl]propyl}-3-(4-chlorophenyl)urea hydrochloride] showed an IC50 [1] of 0.15 µM and an IC50 [2] of 30 µM.

For `CCCCCCNC(=S)NCCCN1CCN(Cc2ccc(Cl)cc2)CC1` [Example 21, 1-{3-[4-(4-Chlorobenzyl)piperazin-1-yl]propyl}-3-n-hexylthiourea dihydrochloride hemihydrate], the IC50 [1] was 0.08 µM and the “Inhibition IC50 (histamine release from human leukocytes (basophils))” value [2] was “Int”.

For `O=C(NCCCN1CCCN(Cc2ccc(Cl)cc2)CC1)Nc1ccccc1` [Example 18, 1-{3-[4-(4-Chlorobenzyl)homopiperazin-1-yl]propyl}-3-phenylurea dihydrochloride], the IC50 [1] was 0.55 µM and the IC50 [2] was 15 µM.

Compound `COc1ccc(NC(=O)NCCCN2CCN(Cc3ccc(Cl)cc3)CC2)cc1` [Example 12, 1-{3-[4-(4-Chlorobenzyl)piperazin-1-yl]-propyl}-3-(4-methoxyphenyl)urea hydrochloride] has an IC50 [1] of 0.015 µM and an IC50 [2] of 80 µM.

In the case of `CCCCCCNC(=O)NCCCN1CCN(CCc2ccc(Cl)cc2)CC1` [Example 23, 1-{3-[4-(4-Chlorophenethyl)piperazin-1-yl]propyl}-3-n-hexylurea dihydrochloride], the IC50 [1] is reported as 0.02 µM and the IC50 [2] is reported as 16 µM.

Work on `O=C(NCCCN1CCN(Cc2ccc(Cl)cc2)CC1)Nc1ccc(F)cc1` [Example 15, 1-{3-[4-(4-Chlorobenzyl)piperazin-1-yl]propyl}-3-(4-fluorophenyl)urea dihydrochloride monohydrate] yielded an IC50 [1] of 0.06 µM and an IC50 [2] of 20 µM.

`N#Cc1ccc(NC(=O)NCCCN2CCN(CCCc3ccc(Cl)cc3)CC2)cc1` [Example 27, 1-{3-{4-[3-(4-Chlorophenyl)propyl]piperazin-1-yl}propyl}3-(4-cyanophenyl)urea dihydrocyloride monohydrate] showed an IC50 [1] of 0.11 µM and an IC50 [2] of 20 µM.

`O=C(NCCCN1CCN(Cc2ccc(Cl)cc2)CC1)Nc1ccc([N+](=O)[O-])cc1` [Example 16, 1-{3-[4-(4-Chlorobenzyl)piperazin-1-yl]propyl}-3-(4-nitrophenyl)urea dihydrochloride] gave an IC50 [1] of 0.018 µM and an IC50 [2] of 30 µM.

In the case of `O=C(NCCCN1CCN(Cc2ccc(Cl)cc2)CC1)Nc1ccccc1` [Example 9, 1-{3-[4-(4-Chlorobenzyl)piperazin-1-yl]propyl}-3-phenylurea], the IC50 [3] is reported as > 1000 µM, the IC50 [1] is reported as 0.05 µM and the IC50 [2] is reported as 78 µM.

`O=C(NCCCN1CCN(Cc2ccc(Cl)cc2)CC1)NCc1ccccc1` [Example 22, 1-{3-[4-(4-Chlorobenzyl)piperazin-1-yl]propyl}-3-benzylurea dihydrochloride] gave an IC50 [1] of 0.23 µM and an IC50 [2] of 112 µM.

For `Cc1ccc(NC(=O)NCCCN2CCN(Cc3ccc(Cl)cc3)CC2)cc1` [Example 11, 1-{3-[4-(4-Chlorobenzyl)piperazin-1-yl]propyl}-3-(4-methylphenyl)urea dihydrochloride monohydrate], the IC50 [1] was 0.065 µM and the IC50 [2] was 37 µM.

`O=C(NCCCN1CCN(Cc2ccc(Cl)cc2)CC1)NC1CCCCC1` [Example 1, 1-{3-[4-(4-Chlorobenzyl)piperazin-1-yl]propyl}-3-cyclohexylurea dihydrochloride] gave an IC50 [3] of 108 µM, an IC50 [1] of 0.015 µM and an IC50 [2] of 50 µM.

`CCCCCCNC(=O)NCCCN1CCN(Cc2ccc(Cl)cc2)CC1` [Example 4, 1-{3-[4-(4-Chlorobenzyl)piperazin-1-yl]propyl}-3-n-hexylurea dihydrochloride] gave an IC50 [3] of 110 µM, an IC50 [1] of 0.05 µM and an IC50 [2] of 8 µM.

In the case of `S=C(NCCCN1CCN(Cc2ccc(Cl)cc2)CC1)NC1CCCCC1` [Example 19, 1-{3-[4-(4-Chlorobenzyl)piperazin-1-yl]propyl}-3-cyclohexylthiourea], the IC50 [1] is reported as 0.11 µM and the IC50 [2] is reported as 26 µM.

For `O=C(NCCCN1CCN(Cc2ccccc2)CC1)NC1CCCCC1` [Example 7, 1-{3-(4-Benzylpiperazin-1-yl)propyl]-3-cyclohexylurea dihydrochloride], the IC50 [1] was 0.32 µM and the IC50 [2] was 240 µM.

`CCOc1ccc(NC(=O)NCCCN2CCN(Cc3ccc(Cl)cc3)CC2)cc1` [Example 30, 1-{3-[4-(4-Chlorobenzyl)piperazin-1-yl]propyl}-3-(4-ethoxyphenyl)urea dihydrochloride] was tested, and the IC50 [2] was 35 µM.

`O=C(NCCCN1CCCN(Cc2ccc(Cl)cc2)CC1)NC1CCCCC1` [Example 17, 1-{3-[4-(4-Chlorobenzyl)homopiperazin-1-yl]propyl}-3-cyclohexylurea dihydrochloride] gave an IC50 [1] of 0.15 µM and an IC50 [2] of 13 µM.

Compound `CNC(=O)NCCCN1CCN(Cc2ccc(Cl)cc2)CC1` [Example 2, 1-{3-[4-(4-Chlorobenzyl)piperazin-1-yl]propyl}-3-methylurea dihydrochloride] has an IC50 [1] of 0.63 µM and an IC50 [2] of 300 µM.

In the case of `O=C(NCCCN1CCN(Cc2ccccc2)CC1)Nc1ccccc1` [Example 8, 1-[3-(4-Benzylpiperazin-1-yl)propyl]-3-phenylurea], the IC50 [1] is reported as 0.21 µM and the IC50 [2] is reported as 400 µM.
